Molecular target: D(2) dopamine receptor (Rattus norvegicus, UniProt P61169)
Assay: Affinity towards Dopamine receptor D2 in rat striatum using [3H]spiperone as radioligand

D(2) dopamine receptor, sequence (P61169 whole entry): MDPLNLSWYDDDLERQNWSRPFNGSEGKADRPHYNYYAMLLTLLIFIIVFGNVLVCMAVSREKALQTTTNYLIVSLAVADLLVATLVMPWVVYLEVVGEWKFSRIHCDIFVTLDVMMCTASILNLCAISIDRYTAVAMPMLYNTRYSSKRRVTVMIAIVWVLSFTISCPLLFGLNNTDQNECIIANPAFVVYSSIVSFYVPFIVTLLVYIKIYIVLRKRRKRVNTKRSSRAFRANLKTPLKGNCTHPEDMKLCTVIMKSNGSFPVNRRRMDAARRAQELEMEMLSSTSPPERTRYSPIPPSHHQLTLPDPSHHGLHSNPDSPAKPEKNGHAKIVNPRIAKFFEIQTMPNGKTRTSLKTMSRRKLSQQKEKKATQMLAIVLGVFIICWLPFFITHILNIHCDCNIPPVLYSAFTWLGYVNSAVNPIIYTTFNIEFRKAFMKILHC

COc1cc(N)c(Cl)cc1C(=O)NC1CC2CCC(C1)N2C (stereo unspecified) [4-amino-5-chloro-2-methoxy-N-(8-methyl-8-azabicyclo[3.2.1]octan-3-yl)benzamide]
Ki: > 1000 nM

— BindingDB's records for doi:10.1021/jm020270n (Dainippon Pharmaceutical, 2003)
